Assay results published in patent US9980976B2, “Use of REDD1 inhibitors to dissociate therapeutic and adverse atrophogenic effects of glucocorticoid receptor agonists” (Northwestern University, priority 2015, dated 2018).

Tests used:
GR = GR phosphorylation at Ser211 (Western blot) in HaCaT and CEM cells; type: cell-based, human; settings: 1 uM FA
Method: FIG. 15. Rapamycin inhibits GR nuclear translocation and phosphorylation. A. GR nuclear translocation in HaCaT cells was determined by immunofluorescence as described in Materials and Methods. Cells on coverslips were pretreated with solvent (Control) or Rapamycin (1 uM×6 h) and treated with 1 uM FA for indicated time. B. GR nuclear translocation in CEM cells was determined by Western blot analysis of nuclear protein extracts. Membranes were probed with anti-HDAC-1 antibodies to verify equal protein loading and transfer. C, D. GR phosphorylation in HaCaT (C) and CEM (D) cells was determined by Western blot analysis of whole cell lysates. Membranes were probed with anti-GAPDH antibodies to verify equal protein loading and transfer.
The whole-cell protein extracts were prepared using RIPA buffer with protease and phosphatase inhibitor cocktails (Thermo Scientific, Thermo Fisher Scientific Inc., Waltham, Mass., USA), resolved by SDS-PAGE on 4-20% gels and transferred to Odyssey nitrocellulose membranes (LI-COR Biosciences, Lincoln, Neb., USA). Membranes were blocked with Odyssey Blocking Buffer and incubated with primary antibodies overnight at 4° C., followed by IRDye® secondary antibodies (LI-COR Biosciences). LI-COR Odyssey Imager was used for the band visualization. […]

REDD1 = REDD1 expression in mouse epidermis and s.c. adipose (Q-PCR, Western blot, immunostaining); type: in vivo
Method: FIG. 16. […] F1 C57B1×129 mice were treated topically with solvent (control), FA ((2 μg/mouse×8 hrs) or pretreated with Rapamycin (500 nmol/mouse×6 hrs) followed by FA treatment for 8 h. RNA and whole cell proteins were extracted from epidermis isolated as described in Matherials and Methods. A. Q-PCR analysis of REDD1 expression. The results were normalized to the expression of the housekeeping Rp127 gene, and presented as fold of change compared to control animals. The means+/−SD calculated for three individual RNA samples/condition. a—Statistically significant difference (P<0.05) compared to control; b—Statistically significant differences (P<0.05) compared to FA treatment. B. Western blot analysis of whole cell proteins in epidermis. Membranes were probed with anti-GAPDH antibodies to verify equal protein loading and transfer. C. Ear edema test. Ear edema was induced by croton oil (CO, 20 ul/ear) as in Materials and Methods. Solvent (20 ul/ear) or FA (1 ug/ear) were applied 1 h before CO after 6 hrs of pre-treatment with rapamycin (200 ng/ear) or solvent. Mice were sacrificed and four-millimeter ear punches were weighed 9 h after CO application to assess swelling. Ear punch weight results are presented as % to control (only solvent treatment) ear weight The means+/−SD were calculated for six individual ear punches/condition in one representative experiment (out of three experiments). a—Statistically significant differences (P<0.05) compared to control treatment; b—Statistically significant differences (P<0.05) compared to CO or CO+rapa treatment.
Seven-week-old females in the telogen stage of the hair cycle were shaved and treated 3 days later. Glucocorticoid FA was applied topically (2 μg/animal) in 200 μl acetone to the back skin once or up to four times every third day as described (Chebotaev et al, 2007c). Control animals were treated with acetone only. Animals were injected i.p. with bromodeoxyuridine (BrdU, Sigma-Aldrich, 50 μg/g of animal weight) 1 h before skin was harvested. Epidermis and s.c. fat were isolated from the murine dorsal skin mechanically by scraping (Chebotaev et al, 2007c).
Sections of formalin-fixed, paraffin-embedded skin and ORCs were stained with hematoxylin and eosin (H&E), Masson's trichrome to evaluate the effect on dermis and collagen fibers (Sheehan & Hrapchack, 1980), and with antibodies against BrdU (BD Biosciences, San Jose, Calif., USA), keratins 1, 5, and 10, loricrin (Covance, Princeton, N.J.), phospho-mTORSer2448 (Cell Signaling Technology, Inc., Danvers, Mass., USA), REDD1 (Proteintech Group, Inc, Chicago, Ill.), p63 (eBioscience, San Diego, Calif., USA), and CD34 (Abcam, Cambridge, Mass., USA). […]

mouse skin = assay: Glucocorticoid-induced skin atrophy in mice (morphometric analysis of dorsal skin); type: in vivo
Method: Seven-week-old females in the telogen stage of the hair cycle were shaved and treated 3 days later. Glucocorticoid FA was applied topically (2 μg/animal) in 200 μl acetone to the back skin once or up to four times every third day as described (Chebotaev et al, 2007c). Control animals were treated with acetone only. Animals were injected i.p. with bromodeoxyuridine (BrdU, Sigma-Aldrich, 50 μg/g of animal weight) 1 h before skin was harvested. Epidermis and s.c. fat were isolated from the murine dorsal skin mechanically by scraping (Chebotaev et al, 2007c). […] Quantification of the epidermal width and number of basal keratinocytes (as the readouts for skin atrophy and hypoplasia of raft epidermis) was performed in dorsal skin and ORC sections stained with H&E. The number of dermal cells was determined on sections stained with Masson's trichrome in the upper (papillary) dermis that is distinguishable from the lower (reticular) dermis ([…] et al, 2013). At least 10 individual fields per slide with at least three samples in each experimental group were counted using Axioplan2 microscope software (Carl Zeiss). All measurements are presented as % to corresponding control.

[1] = B6D2 mice, FA 2 μg/animal topically every 72 h, 2-week treatment

SMILES: CC1(C)O[C@@H]2C[C@H]3[C@@H]4C[C@H](F)C5=CC(=O)C=C[C@]5(C)[C@@]4(F)[C@@H](O)C[C@]3(C)[C@]2(C(=O)CO)O1 [FA, fluocinolone acetonide]
- GR phosphorylation at Ser211 (GR): induced quick GR phosphorylation
- REDD1 expression in s.c. adipose versus epidermis (REDD1; B6D2 mice, 24 h after FA, Q-PCR): equally activated in s.c. adipose and epidermis
- REDD1 expression in skin (REDD1; F1 C57B1×129 mice, topical FA 2 ug/animal×24 h): strongly induced
- REDD1 mRNA increase (REDD1; epidermis of B6D2 mice, 4-24 h after the first FA application, Q-PCR): ~4.5 fold
- REDD1 protein expression (REDD1; skin of B6D2 mice, Western blot and immunostaining, single and chronic FA): induced REDD1 expression as early as 4-8 h after first application
- depletion of the interfollicular basal keratinocytes (mouse skin; [1]): 50%
- epidermal thinning (mouse skin; [1]): 50%
- depletion of s.c. adipose tissue (mouse skin; B6D2 mice, chronic FA treatment): complete depletion
- reduction of epidermal thickness (mouse skin; B6×129 mice, FA 2 ug/animal every 72 h for 2 weeks, with or without rapamycin 500 ug/animal×5 hrs pretreatment): 50%
- skin atrophy (mouse skin; F1 C57B1×129 mice, topical FA, 2 wk treatment): severe skin atrophy
- reduction of epidermal thickness (mouse skin; REDD1 KO mice, chronic FA 2 μg/animal every 72 h for 2 weeks): < 20%
- number of dermal fibroblasts (mouse skin; w.t. B6×129 mice treated with FA×2 wk, Masson's trichrome): strongly decreased
- reduction of epidermal thickness (mouse skin; wild-type B6×129 mice, chronic FA 2 μg/animal every 72 h for 2 weeks): 50%
